# Assay results from PubChem BioAssay (NCI).
#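 All cell lines were grown in 96-well plates and treated with compound for 48 hours. TGI: concentration producing complete growth inhibition.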
# What was measured:
# Assay in all cases: NCI tumour cell line growth inhibition, 48 h
# 786-0 renal = tested on: 786-0 renal
# A498 renal = tested on: A498 renal
# A549 NSCLC = tested on: A549 NSCLC
# ACHN renal = tested on: ACHN renal
# BT-549 breast = tested on: BT-549 breast
# CAKI-1 renal = tested on: CAKI-1 renal
# CCRF-CEM leukemia = tested on: CCRF-CEM leukemia
# COLO 205 colon = tested on: COLO 205 colon
# DU-145 prostate = tested on: DU-145 prostate
# EKVX NSCLC = tested on: EKVX NSCLC
# HCC-2998 colon = tested on: HCC-2998 colon
# HCT-116 colon = tested on: HCT-116 colon
# HCT-15 colon = tested on: HCT-15 colon
# HL-60(TB) leukemia = tested on: HL-60(TB) leukemia
# HOP-62 NSCLC = tested on: HOP-62 NSCLC
# HOP-92 NSCLC = tested on: HOP-92 NSCLC
# HS 578T breast = tested on: HS 578T breast
# HT29 colon = tested on: HT29 colon
# IGROV1 ovarian = tested on: IGROV1 ovarian
# K-562 leukemia = tested on: K-562 leukemia
# KM12 colon = tested on: KM12 colon
# LOX IMVI melanoma = tested on: LOX IMVI melanoma
# M14 melanoma = tested on: M14 melanoma
# MALME-3M melanoma = tested on: MALME-3M melanoma
# MCF7 breast = tested on: MCF7 breast
# MDA-MB-231 breast = tested on: MDA-MB-231 breast
# MDA-MB-435 = tested on: MDA-MB-435
# MDA-N = tested on: MDA-N
# MOLT-4 leukemia = tested on: MOLT-4 leukemia
# NCI-H23 lung = tested on: NCI-H23 lung
# NCI-H460 lung = tested on: NCI-H460 lung
# NCI-H522 lung = tested on: NCI-H522 lung
# NCI/ADR-RES ovarian = tested on: NCI/ADR-RES ovarian
# OVCAR-3 ovarian = tested on: OVCAR-3 ovarian
# OVCAR-4 ovarian = tested on: OVCAR-4 ovarian
# OVCAR-5 ovarian = tested on: OVCAR-5 ovarian
# OVCAR-8 ovarian = tested on: OVCAR-8 ovarian
# PC-3 prostate = tested on: PC-3 prostate
# RPMI-8226 leukemia = tested on: RPMI-8226 leukemia
# RXF 393 renal = tested on: RXF 393 renal
# SF-268 CNS = tested on: SF-268 CNS
# SF-295 CNS = tested on: SF-295 CNS
# SF-539 CNS = tested on: SF-539 CNS
# SK-MEL-2 melanoma = tested on: SK-MEL-2 melanoma
# SK-MEL-28 melanoma = tested on: SK-MEL-28 melanoma
# SK-MEL-5 melanoma = tested on: SK-MEL-5 melanoma
# SK-OV-3 ovarian = tested on: SK-OV-3 ovarian
# SN12C renal = tested on: SN12C renal
# SNB-19 CNS = tested on: SNB-19 CNS
# SR leukemia = tested on: SR leukemia
# SW-620 colon = tested on: SW-620 colon
# T-47D breast = tested on: T-47D breast
# TK-10 renal = tested on: TK-10 renal
# U251 CNS = tested on: U251 CNS
# UACC-257 melanoma = tested on: UACC-257 melanoma
# UACC-62 melanoma = tested on: UACC-62 melanoma
# UO-31 renal = tested on: UO-31 renal
# NCI-H226 lung = tested on: NCI-H226 lung
# SNB-75 CNS = tested on: SNB-75 CNS
smiles,measurement,setting,value
CCOC(=O)Nc1ccc(S(=O)(=O)Nn2cnnc2)cc1,TGI,786-0 renal,> 100 µM
same,TGI,A498 renal,96.2 µM
same,TGI,A549 NSCLC,> 100 µM
same,TGI,ACHN renal,> 100 µM
same,TGI,BT-549 breast,> 100 µM
same,TGI,CAKI-1 renal,> 100 µM
same,TGI,CCRF-CEM leukemia,> 100 µM
same,TGI,COLO 205 colon,> 100 µM
same,TGI,DU-145 prostate,> 100 µM
same,TGI,EKVX NSCLC,> 100 µM
same,TGI,HCC-2998 colon,74.5 µM
same,TGI,HCT-116 colon,> 100 µM
same,TGI,HCT-15 colon,> 100 µM
same,TGI,HL-60(TB) leukemia,> 100 µM
same,TGI,HOP-62 NSCLC,> 100 µM
same,TGI,HOP-92 NSCLC,> 100 µM
same,TGI,HS 578T breast,> 100 µM
same,TGI,HT29 colon,59.9 µM
same,TGI,IGROV1 ovarian,> 100 µM
same,TGI,K-562 leukemia,77.9 µM
same,TGI,KM12 colon,> 100 µM
same,TGI,LOX IMVI melanoma,> 100 µM
same,TGI,M14 melanoma,> 100 µM
same,TGI,MALME-3M melanoma,> 100 µM
same,TGI,MCF7 breast,> 100 µM
same,TGI,MDA-MB-231 breast,> 100 µM
same,TGI,MDA-MB-435,49.7 µM
same,TGI,MDA-N,73.9 µM
same,TGI,MOLT-4 leukemia,> 100 µM
same,TGI,NCI-H23 lung,> 100 µM
same,TGI,NCI-H460 lung,> 100 µM
same,TGI,NCI-H522 lung,> 100 µM
same,TGI,NCI/ADR-RES ovarian,> 100 µM
same,TGI,OVCAR-3 ovarian,77.4 µM
same,TGI,OVCAR-4 ovarian,73.4 µM
same,TGI,OVCAR-5 ovarian,> 100 µM
same,TGI,OVCAR-8 ovarian,> 100 µM
same,TGI,PC-3 prostate,> 100 µM
same,TGI,RPMI-8226 leukemia,94.3 µM
same,TGI,RXF 393 renal,> 100 µM
same,TGI,SF-268 CNS,> 100 µM
same,TGI,SF-295 CNS,> 100 µM
same,TGI,SF-539 CNS,65.1 µM
same,TGI,SK-MEL-2 melanoma,> 100 µM
same,TGI,SK-MEL-28 melanoma,> 100 µM
same,TGI,SK-MEL-5 melanoma,> 100 µM
same,TGI,SK-OV-3 ovarian,> 100 µM
same,TGI,SN12C renal,> 100 µM
same,TGI,SNB-19 CNS,> 100 µM
same,TGI,SR leukemia,> 100 µM
same,TGI,SW-620 colon,> 100 µM
same,TGI,T-47D breast,> 100 µM
same,TGI,TK-10 renal,> 100 µM
same,TGI,U251 CNS,> 100 µM
same,TGI,UACC-257 melanoma,> 100 µM
same,TGI,UACC-62 melanoma,> 100 µM
same,TGI,UO-31 renal,> 100 µM
O=c1c2nc(-c3ccccc3)oc2n(-c2ccccc2)c(=O)n1-c1ccccc1,TGI,786-0 renal,31.7 µM
same,TGI,A498 renal,> 31.6 µM
same,TGI,A549 NSCLC,> 46.4 µM
same,TGI,ACHN renal,> 46.4 µM
same,TGI,BT-549 breast,> 46.4 µM
same,TGI,CAKI-1 renal,18.2 µM
same,TGI,CCRF-CEM leukemia,> 46.4 µM
same,TGI,COLO 205 colon,> 46.4 µM
same,TGI,DU-145 prostate,> 100 µM
same,TGI,EKVX NSCLC,> 46.4 µM
same,TGI,HCC-2998 colon,> 46.4 µM
same,TGI,HCT-116 colon,> 46.4 µM
same,TGI,HCT-15 colon,> 46.4 µM
same,TGI,HL-60(TB) leukemia,> 100 µM
same,TGI,HOP-62 NSCLC,29.7 µM
same,TGI,HOP-92 NSCLC,24.4 µM
same,TGI,HS 578T breast,39.5 µM
same,TGI,HT29 colon,> 46.4 µM
same,TGI,IGROV1 ovarian,41 µM
same,TGI,K-562 leukemia,> 46.4 µM
same,TGI,KM12 colon,> 46.4 µM
same,TGI,LOX IMVI melanoma,> 46.4 µM
same,TGI,M14 melanoma,> 46.4 µM
same,TGI,MALME-3M melanoma,> 31.6 µM
same,TGI,MCF7 breast,> 46.4 µM
same,TGI,MDA-MB-231 breast,> 46.4 µM
same,TGI,MDA-MB-435,> 46.4 µM
same,TGI,MDA-N,> 46.4 µM
same,TGI,MOLT-4 leukemia,> 46.4 µM
same,TGI,NCI-H226 lung,44.1 µM
same,TGI,NCI-H23 lung,> 46.4 µM
same,TGI,NCI-H460 lung,> 46.4 µM
same,TGI,NCI-H522 lung,39.1 µM
same,TGI,NCI/ADR-RES ovarian,> 31.6 µM
same,TGI,OVCAR-3 ovarian,> 46.4 µM
same,TGI,OVCAR-4 ovarian,36.6 µM
same,TGI,OVCAR-5 ovarian,> 46.4 µM
same,TGI,OVCAR-8 ovarian,44.6 µM
same,TGI,PC-3 prostate,> 46.4 µM
same,TGI,RPMI-8226 leukemia,> 46.4 µM
same,TGI,RXF 393 renal,34.8 µM
same,TGI,SF-268 CNS,39.3 µM
same,TGI,SF-295 CNS,42.4 µM
same,TGI,SF-539 CNS,35.8 µM
same,TGI,SK-MEL-2 melanoma,> 46.4 µM
same,TGI,SK-MEL-28 melanoma,> 100 µM
same,TGI,SK-MEL-5 melanoma,> 31.6 µM
same,TGI,SK-OV-3 ovarian,40.1 µM
same,TGI,SN12C renal,> 46.4 µM
same,TGI,SNB-19 CNS,36 µM
same,TGI,SNB-75 CNS,31.2 µM
same,TGI,SR leukemia,> 31.6 µM
same,TGI,SW-620 colon,> 46.4 µM
same,TGI,T-47D breast,> 46.4 µM
same,TGI,TK-10 renal,21.5 µM
same,TGI,U251 CNS,33.1 µM
same,TGI,UACC-257 melanoma,> 46.4 µM
same,TGI,UACC-62 melanoma,> 46.4 µM
same,TGI,UO-31 renal,> 31.6 µM
